In patent US9545418B2, “ON01910.Na enhances chemotherapeutic agent activity in drug-resistant tumors” (THE JOHNS HOPKINS UNIVERSITY, priority 2008, dated 2017):

Experiments:
[1] = test system: Tumor 41 (pancreatic tumor); assay: Direct pancreatic cancer derived xenograft, Tumor 41; type: in vivo, mice; conditions: Gemcitabine 100 mg/kg 2 times/week for 4 weeks, ON-01910.Na 250 mg/kg/day for 4 weeks
Excerpt: (§1) Resected pancreatic adenocarcinomas are routinely implanted in nude mice at the Johns Hopkins Medical Institutions as a method to obtain enriched populations of neoplastic cells under an IRB-approved protocol from residual pancreatic cancer tumors. Briefly, tumor specimens from Whipple resection specimens were divided into 2-3 mm^3 pieces in antibiotic-containing RPMI media. Pieces of non-necrotic tissue were selected and immersed in Matrigel. Under anesthesia with isofluorane, tumors were implanted into five-to-six week-old female athymic (nu/nu) mice purchased from Harlan (Harlan Laboratories, Washington, D.C.). […] Tumor size was determined using calipers every four days for the course of the experiment. Relative tumor growth inhibition (TGI) was calculated as TGI=(Ti−T0/Ci−C0), where Ti and Ci represent tumor size in the treated and control group at 28-day, respectively; […] Experiments were terminated on day 28. […] Pancreatic tumors were implanted in mice as detailed above. Mice were treated with gemcitabine alone, ON-01910-Na alone, or a combination thereof as indicated. Tumor size was measured at four day intervals.

[2] = test system: Tumor 28 (pancreatic tumor); assay: Direct pancreatic cancer derived xenograft, Tumor 28; type: in vivo, mice; conditions: Gemcitabine 100 mg/kg 2 times/week for 4 weeks, ON-01910.Na 250 mg/kg/day for 4 weeks
Excerpt: as §1

[3] = test system: Tumor JH03 (pancreatic tumor); assay: Direct pancreatic cancer derived xenograft, Tumor JH03; type: in vivo, mice; conditions: Gemcitabine 100 mg/kg 2 times/week for 4 weeks, ON-01910.Na 250 mg/kg/day for 4 weeks
Excerpt: as §1

[4] = test system: Plk1; assay: Plk1 expression analysis by RT-PCR in xenograft tumors harvested on day 28; type: in vivo, mice; conditions: JH03 tumor, day 28, compared with the other tumors
Excerpt: Total RNA was extracted from cell pellets (and tumors) using the RNeasy™ Mini Kit (Qiagen, Valencia, Calif.). cDNA was synthesized using iScript cDNA synthesis kit (Bio-Rad, Hercules, Calif.) following the manufacturer's instructions. Relative quantification of Plk1 and ubiquitin C (UBC, used as housekeeper gene) mRNA was achieved using an iCycler iQ real-time PCR detection system (Bio-Rad) using ABI Taqman probes (Foster City, Calif.). The experiments were repeated twice and samples were run in quadruplicate.
On day 28, animals were euthanized and tumors were removed for Plk1 expression analysis by RT-PCR using standard protocols. Plk1 expression levels were expressed relative to expression in non-drug treated control.
On day 28, tumors were harvested and analyzed for Plk1 expression (FIG. 2C).

[5] = test system: Solid tumors including prostate, breast, and lung; conditions: oral; cited from earlier work

| SMILES | susceptibility of tumor to treatment (tumor growth) [1] | susceptibility of tumor to treatment (tumor growth) [2] | susceptibility of tumor to treatment (tumor growth) [3] | Plk1 expression in tumor after exposure [4] | maximum tolerated dose [5] |
| --- | --- | --- | --- | --- | --- |
| Nc1ccn(C2OC(CO)C(O)C2(F)F)c(=O)n1 (centres unmarked) [gemcitabine, 4-amino-1-[3,3-difluoro-4-hydroxy-5-(hydroxymethyl)tetrahydrofuran-2-yl]-1H-pyrimidin-2-one] | susceptible | resistant | susceptible | lowest expression of Plk1 | – |
| CCCCCCCCCCCCCCCC(=O)Nc1ccn([C@@H]2O[C@H](CO)[C@@H](O)[C@@H]2C#N)c(=O)n1 [sapacitabine] | – | – | – | – | dose 160 mg/m^2/day |
